Test results published in patent US8926966B1 (Regents of the University of California, priority 1990, dated 2015).

System: IDDM associated autoantibodies in sera
Assay: ELISA of sera on plate-bound human GAD65 peptides
Assay type: binding
Details: for number of IDDM (at risk, pre-IDDM, at onset) patients positive (X) for the peptide (unlabelled sum line): IDDM sera of Table 11
Description: Patient sera and most control sera were those used in a previous study (Kaufman, et al., J. Clin. Investigation, supra) All samples were coded and tested in a blind manner. Peptides were synthesized using an automatic instrument (Applied Biosystems, Foster City, Calif.) and standard conditions. Peptides were dissolved in 60 mM sodium bicarbonate buffer (pH 9.6) at 20 ug/ml and 100 ul of each was added to duplicated wells of a 96 well Nunc-Immuno Plate. Peptides were allowed to bind at 4° C. overnight. The plates were then washed three times with PBS+0.1% Tween 20 (wash buffer), after which the plates were pre-absorbed with 3% BSA in sodium bicarbonate buffer for 0.5 hours at 37° C., or at room temperature overnight. The plates were then washed 5 times with the above wash buffer. 100 ul of serum at a 1/300 dilution in PBS+0.1% Tween 20 and 1% BSA was added to each well and antibodies were allowed to bind for 1 hour at 37° C. The plates were washed 5 times with wash buffer. 100 ul of a 1/600 dilution of HRP-goat anti-human IgG (BRL, Gaithersberg, Md.) was added to each well and allowed to bind for 1 hour at 37° C. The plates were then washed 7 times and 100 ul of substrate buffer was added to each well for 30 minutes at room temperature. The color development was measured at 410 nm using an ELISA plate reader (ICN, Biomedicals, Costa Mesa, Calif.). Positive sera were defined as: OD410 of the sample/negative control ≧3.0.

[1] = IDDM At Onset serum 048, 1/300 dilution
[2] = IDDM At Onset serum 291, 1/300 dilution
[3] = IDDM At Onset serum 705, 1/300 dilution
[4] = IDDM At Onset serum S.H., 1/300 dilution
[5] = Pre-IDDM serum 723, 1/300 dilution
[6] = Pre-IDDM serum J.B. (2), 1/300 dilution
[7] = Pre-IDDM serum P.T. (1), 1/300 dilution
[8] = Pre-IDDM serum P.T. (2), 1/300 dilution
[9] = Pre-IDDM serum R.S. (2), 1/300 dilution
[10] = IDDM At Risk serum 052, 1/300 dilution
[11] = IDDM At Risk serum L.I., 1/300 dilution

GLLMSRKHKLSGVERANS [Peptide 25]
controls whose sera recognized the peptide (13 control sera): 1 out of 13 | number of control sera positive (X) for the peptide (unlabelled sum line) (13 control sera): 1 | immunoreactivity of serum with GAD65 peptide [1]: X (X = positive for immunoreactivity as defined by 00/background^3.0) | immunoreactivity of serum with GAD65 peptide [2]: X (X = positive for immunoreactivity as defined by 00/background^3.0) | immunoreactivity of serum with GAD65 peptide [3]: X (X = positive for immunoreactivity as defined by 00/background^3.0) | immunoreactivity of serum with GAD65 peptide [4]: X (X = positive for immunoreactivity as defined by 00/background^3.0) | immunoreactivity of serum with GAD65 peptide (IDDM At Risk serum 356, 1/300 dilution): X (X = positive for immunoreactivity as defined by 00/background^3.0) | immunoreactivity of serum with GAD65 peptide (IDDM At Risk serum 825, 1/300 dilution): b (b = borderline response (00/background ?2.5-2.9).) | number of IDDM (at risk, pre-IDDM, at onset) patients positive (X) for the peptide (unlabelled sum line): 8 | immunoreactivity of serum with GAD65 peptide [5]: X (X = positive for immunoreactivity as defined by 00/background^3.0) | immunoreactivity of serum with GAD65 peptide [6]: b (b = borderline response (00/background ?2.5-2.9).) | immunoreactivity of serum with GAD65 peptide [7]: b (b = borderline response (00/background ?2.5-2.9).) | immunoreactivity of serum with GAD65 peptide [8]: X (X = positive for immunoreactivity as defined by 00/background^3.0) | immunoreactivity of serum with GAD65 peptide (Pre-IDDM serum R.S. (1), 1/300 dilution): X (X = positive for immunoreactivity as defined by 00/background^3.0) | immunoreactivity of serum with GAD65 peptide [9]: X (X = positive for immunoreactivity as defined by 00/background^3.0) | immunoreactivity of serum with GAD65 peptide (control serum FA12, 1/300 dilution): b (b = borderline response (00/background ?2.5-2.9).) | immunoreactivity of serum with GAD65 peptide (control serum S.M., 1/300 dilution): X (X = positive for immunoreactivity as defined by 00/background^3.0) | patients whose sera recognized the peptide (patients previously shown to be 64K positive): 6/8

GSGDSENPGTARAWCQVAQKFTG [Peptide 2]
immunoreactivity of serum with GAD65 peptide [4]: b (b = borderline response (00/background ?2.5-2.9).) | immunoreactivity of serum with GAD65 peptide [10]: b (b = borderline response (00/background ?2.5-2.9).)

HATDLLPACDGERPTLAFLQ [Peptide 7]
immunoreactivity of serum with GAD65 peptide [2]: b (b = borderline response (00/background ?2.5-2.9).) | immunoreactivity of serum with GAD65 peptide (Pre-IDDM serum J.B. (1), 1/300 dilution): b (b = borderline response (00/background ?2.5-2.9).) | immunoreactivity of serum with GAD65 peptide [6]: b (b = borderline response (00/background ?2.5-2.9).) | immunoreactivity of serum with GAD65 peptide [8]: b (b = borderline response (00/background ?2.5-2.9).)

KGTTGFEAHVDKCLELAEYLYN [Peptide 31]
immunoreactivity of serum with GAD65 peptide [10]: b (b = borderline response (00/background ?2.5-2.9).) | immunoreactivity of serum with GAD65 peptide [7]: b (b = borderline response (00/background ?2.5-2.9).) | immunoreactivity of serum with GAD65 peptide [8]: b (b = borderline response (00/background ?2.5-2.9).)

KHYDLSYDTGDKALQCGRHV [Peptide 29]
immunoreactivity of serum with GAD65 peptide [1]: X (X = positive for immunoreactivity as defined by 00/background^3.0) | immunoreactivity of serum with GAD65 peptide [3]: X (X = positive for immunoreactivity as defined by 00/background^3.0) | immunoreactivity of serum with GAD65 peptide [10]: X (X = positive for immunoreactivity as defined by 00/background^3.0) | number of IDDM (at risk, pre-IDDM, at onset) patients positive (X) for the peptide (unlabelled sum line): 4 | immunoreactivity of serum with GAD65 peptide [6]: b (b = borderline response (00/background ?2.5-2.9).) | immunoreactivity of serum with GAD65 peptide [7]: X (X = positive for immunoreactivity as defined by 00/background^3.0) | immunoreactivity of serum with GAD65 peptide [8]: X (X = positive for immunoreactivity as defined by 00/background^3.0)

KPCSCSKVDVNYAFLHATDL [Peptide 6]
immunoreactivity of serum with GAD65 peptide [1]: X (X = positive for immunoreactivity as defined by 00/background^3.0) | immunoreactivity of serum with GAD65 peptide [10]: X (X = positive for immunoreactivity as defined by 00/background^3.0) | number of IDDM (at risk, pre-IDDM, at onset) patients positive (X) for the peptide (unlabelled sum line): 2 | immunoreactivity of serum with GAD65 peptide [9]: b (b = borderline response (00/background ?2.5-2.9).)

LAFLQDVMNILLQYVVKSFDRS [Peptide 8]
immunoreactivity of serum with GAD65 peptide [3]: X (X = positive for immunoreactivity as defined by 00/background^3.0) | immunoreactivity of serum with GAD65 peptide [11]: X (X = positive for immunoreactivity as defined by 00/background^3.0) | number of IDDM (at risk, pre-IDDM, at onset) patients positive (X) for the peptide (unlabelled sum line): 2 | immunoreactivity of serum with GAD65 peptide [6]: b (b = borderline response (00/background ?2.5-2.9).) | immunoreactivity of serum with GAD65 peptide [8]: b (b = borderline response (00/background ?2.5-2.9).) | immunoreactivity of serum with GAD65 peptide [9]: b (b = borderline response (00/background ?2.5-2.9).)

LEAKQKGFVPFLVSATAGTT [Peptide 22]
immunoreactivity of serum with GAD65 peptide [2]: X (X = positive for immunoreactivity as defined by 00/background^3.0) | immunoreactivity of serum with GAD65 peptide [3]: X (X = positive for immunoreactivity as defined by 00/background^3.0) | number of IDDM (at risk, pre-IDDM, at onset) patients positive (X) for the peptide (unlabelled sum line): 2 | immunoreactivity of serum with GAD65 peptide [6]: b (b = borderline response (00/background ?2.5-2.9).) | immunoreactivity of serum with GAD65 peptide [8]: b (b = borderline response (00/background ?2.5-2.9).)

LLYGDAEKPAESGGSQPPRA [Peptide 4]
immunoreactivity of serum with GAD65 peptide [2]: X (X = positive for immunoreactivity as defined by 00/background^3.0) | immunoreactivity of serum with GAD65 peptide [6]: b (b = borderline response (00/background ?2.5-2.9).) | immunoreactivity of serum with GAD65 peptide [8]: b (b = borderline response (00/background ?2.5-2.9).)

QKFTGGIGIGNKLCALLYGD [Peptide 3]
immunoreactivity of serum with GAD65 peptide [1]: X (X = positive for immunoreactivity as defined by 00/background^3.0) | immunoreactivity of serum with GAD65 peptide [2]: b (b = borderline response (00/background ?2.5-2.9).) | immunoreactivity of serum with GAD65 peptide [4]: X (X = positive for immunoreactivity as defined by 00/background^3.0) | immunoreactivity of serum with GAD65 peptide [11]: b (b = borderline response (00/background ?2.5-2.9).) | immunoreactivity of serum with GAD65 peptide [5]: X (X = positive for immunoreactivity as defined by 00/background^3.0)

QNCNQMHASYLFQQDKHYDL [Peptide 28]
immunoreactivity of serum with GAD65 peptide [10]: b (b = borderline response (00/background ?2.5-2.9).)
